Data as given in paper PMC9692097, “Immunosuppressants Tacrolimus and Sirolimus revert the cardiac antifibrotic properties of p38-MAPK inhibition in 3D-multicellular human iPSC-heart organoids” (Frontiers in Cell and Developmental Biology, 2022).

Assays:
[1] = Cytotoxic assay in cardiac fibroblasts (crystal violet, 96 h); format: cell-based; details: human, human ventricular cardiac fibroblasts (NHCF-V), NHCF-V cell line, read-out: IC50 (cytotoxicity, CF viability)
Procedure: SB202190, Tacrolimus, and Sirolimus were freshly and individually prepared in DMSO for each individual experiment. Cardiac fibroblasts were seeded individually in 96-well plates (5,000 cells per well). The treatment effectiveness was assayed after applying reducing concentrations in a 1:2 fixed ratio to cycling cells in the exponential phase. All treatments were assessed within reducing doses of SB202190, Tacrolimus, or Sirolimus in monotherapy or combination in fixed proportions a day after the seeding. The proliferation viability was determined by crystal violet after 96 h. Cytotoxicity profiles were measured by absorbance at 595 nm using a microplate reader; then, IC50 values were estimated using GraphPad Prism 7 software.

[2] = system: iPSC-derived human heart organoids (hHOs); test: Cardiotoxicity MTT assay in iPSC-derived human heart organoids (96 h); format: cell-based; details: hHOs day 15, MTT, read-out: IC50 (hHO cellular viability)
Procedure: SB202190, Tacrolimus, and Sirolimus were prepared alone or in combinations mixed in DMSO for each experiment. hHOs were differentiated and seeded separately in low-binding 96-w plates. The effectiveness of the treatment was measured after the usage of decreasing concentrations in a 1:2 ratio to day 15 of developing heart organoids. All treatments were applied by reducing dosages of SB202190, Tacrolimus, or Sirolimus in monotherapy or combination. The proliferation capacity as a functional assay was determined using an MTT assay after 96 h (4 days). Cytotoxicity profiling was drafted by obtaining absorbance metrics at 595 nm using a particular microplate reader; then, IC50 values were calculated using GraphPad Prism 7.

hHO spontaneous beating = test: Organoid beating evaluation (beating count vs untreated organoid); format: cell-based, human; details: hHOs, 96 h
Excerpt: For organoid beating evaluation, we measured the beating count at 10 s intervals and then compared it to the beating count of the untreated organoid for each case in biological triplicates.

COL1A1 [3] = test: COL1A1 expression in NHCF-V cardiac fibroblasts (western blot, immunocytochemistry); format: cell-based, human; details: for COL1A1 protein expression: 5 ng/ml TGF-β1 for 24 h, SB202190 10 μM, TAC 10 μM, Sirolimus 200 nM
Procedure: Cells were fixed by 4% PFA treatment for 15 min and stored in PBS at 4°C. Blocking was performed for 30–45 min in a blocking buffer containing 1% BSA, 0.5% Triton X-100 and 0.1 M glycine in PBS. After washing three times with PBS, primary antibody anti-Collagen I (1:200, ab34710, Abcam) was added to the blocking buffer (w/o glycine) and incubated overnight at 4°C. The next day, cells were washed three times with PBS, and secondary antibody donkey anti-rabbit Alexa Fluro 594 (1:1000, A21207, Invitrogen) was added in 1% BSA-PBS for 2 h at RT. After washing three times with PBS, 1:10,000 Hoechst 33342 was added for nuclear counterstaining. Images were taken with Keyence.
After 3 days of treatment on unstimulated CFs, we treated cells with 5 ng/ml of TGF-β1 in combination with the inhibitors for another 24 h to recapitulate pathological conditions of heart disease and induced a forced expression of ECMs, with a particular focus on COL1A1 as a major component of the Collagen type I.

COL1A1 [4] = test: COL1A1 expression in TGF-β1 stimulated hHOs (western blot, immunocytochemistry); format: cell-based, human; details: 5 ng/ml TGF-β1 for 24 h, SB202190 10 μM, TAC 10 μM, Sirolimus 200 nM
Procedure: Immunofluorescence staining of hHOs was conducted as previously described. hHOs were fixed by 4% PFA solution for 45–60 min at room temperature and incubated in blocking/permeabilization solution containing 10% normal donkey serum (Abcam), 0.5% Triton X-100 (nacalai tesque) and 0.5% BSA (nacalai tesque) at 4°C overnight. Subsequently, hHOs were stained with primary and secondary antibodies in PBS containing 1% normal donkey serum, 0.5% Triton X-100 and 0.5% BSA, respectively. Nuclei were stained with Hoechst 33342 (1:1000) before mounting. A confocal laser scanning microscope (Olympus FV3000) was used for fluorescent observation. Primary antibodies used are listed as follows: anti-Vimentin (1:200, ab11256, Abcam); anti-Collagen I (1:200, ab34710, Abcam); anti-WT1 (1:200, ab89901, Abcam); anti-ZO-1 (1:200, 33-9100, Invitrogen); anti-CD31/PECAM1 (1:50, ab28364, Abcam); anti-Cardiac Troponin T (1:200, ab8295, Abcam); anti-NFAT2 (1:200, ab25916, Abcam); anti-CD90/THY1 (1:200, ab133350, Abcam). […]
Cells were lysed in M-PER Mammalian Protein Extraction Reagent (78501, Thermo Scientific) buffer, and hHOs were lysed in T-PER Tissue Protein Extraction Reagent (78510, Thermo Scientific). The amount of protein was determined by Bradford assay using BSA as a standard. […]

RAS = system: RAS; design: method as in earlier work; details: RAS antagonist, ref Reif et al., 1999, Katzav et al., 2001, Clarke et al., 2003, 2004, Kafri et al., 2005, Nevo et al., 2011, Rokni et al., 2022; cited from earlier work
[5] = system: mTORC1 downstream targets p4E-BP1 and pS6K; test: Western blot for pathway targets in NHCF-V; format: cell-based, human; details: 200 nM
Procedure: (§1) Cells were lysed in M-PER Mammalian Protein Extraction Reagent (78501, Thermo Scientific) buffer, and hHOs were lysed in T-PER Tissue Protein Extraction Reagent (78510, Thermo Scientific). The amount of protein was determined by Bradford assay using BSA as a standard. The primary antibodies were purchased from commercial sources as follows: anti-phospho-S6 Ribosomal Protein (1:1000, 5364, CST); anti-phospho-4E-BP1 (1:1000, 2855, CST); anti-4E-BP1 (1:1000, 9644, CST); anti-phospho-p38 (1:1000, 4631, CST); anti-p38 (1:1000, 9212, CST); anti-phospho-AKT (1:1000, 9271, CST); anti-Collagen I (1:1000, ab34710, abcam); anti-IL-11 (1:1000, ab76589, abcam); anti-β-actin (1:1000, A5441, Sigma). The secondary antibodies used are as follows: goat anti-rabbit IgG (HRP) (1:5000, sc-2054, Santa cruz), and anti-mouse IgG (HRP) (1:5000, 7076, CST).

IL-11 and phospho-p38 = test: Western blot for IL-11 and phospho-p38 in TGF-β1 stimulated hHOs; format: cell-based, human
Procedure: as §1

Question: For Oc1ccc(-c2nc(-c3ccncc3)c(-c3ccc(F)cc3)[nH]2)cc1 [SB202190], which IC50 at 96 h [1] is on record?
Answer: 13.9 µM

Question: And the IC50 [2]?
Answer: 72.4 µM

Question: What about the “safe dosages preserving average beating rates compared to untreated organoids (from ... downwards)” value (hHO spontaneous beating) of the same molecule?
Answer: ≤ 100 µM

Question: What about the COL1A1 protein expression (COL1A1 [3]) of the same molecule?
Answer: independent effect in reducing COL1A1 protein expression

Question: And the “TGF-β1 driven COL1A1 expression / ECM depositions” value (COL1A1 [4])?
Answer: effectively reduced TGF-β1 driven COL1A1 expression

Question: For C=CC[C@@H]1/C=C(\C)C[C@H](C)C[C@H](OC)[C@H]2O[C@@](O)(C(=O)C(=O)N3CCCC[C@H]3C(=O)O[C@H](/C(C)=C/[C@@H]3CC[C@@H](O)[C@H](OC)C3)[C@H](C)[C@@H](O)CC1=O)[C@H](C)C[C@@H]2OC [Tacrolimus], which IC50 at 96 h [1] is on record?
Answer: 12.6 µM

Question: What about the IC50 [2] of the same molecule?
Answer: 19.9 µM

Question: What about the “safe dosages preserving average beating rates compared to untreated organoids (from ... downwards)” value (hHO spontaneous beating) of the same molecule?
Answer: ≤ 12 µM

Question: And the COL1A1 protein expression (COL1A1 [3])?
Answer: no effect

Question: And the “COL1A1 levels in TGF-β1 unstimulated condition” value (COL1A1 [3]; unstimulated, western blot)?
Answer: mildly increase COL1A1 levels

Question: With CC(C)=CCC/C(C)=C/CC/C(C)=C/CSc1ccccc1C(=O)O [FTS, Farnesythiosalicylic acid] as the molecule, how does the “inflammation and fibrosis in animal models” value (RAS) read?
Answer: decreasing inflammation and fibrosis in animal models

Question: Which results are given for CO[C@H]1C[C@@H]2CC[C@@H](C)[C@@](O)(O2)C(=O)C(=O)N2CCCC[C@H]2C(=O)O[C@H]([C@H](C)C[C@@H]2CC[C@@H](O)[C@H](OC)C2)CC(=O)[C@H](C)/C=C(\C)[C@@H](O)[C@@H](OC)C(=O)[C@H](C)C[C@H](C)/C=C/C=C/C=C/1C [Sirolimus]?
Answer: IC50 at 96 h [1]: 3.54 ± 0.2 µM; IC50 [2]: 5.01 ± 0.4 µM; safe dosages preserving average beating rates compared to untreated organoids (from ... downwards) (hHO spontaneous beating): ≤ 2.5 µM; COL1A1 protein expression (COL1A1 [3]): independent effect in reducing COL1A1 protein expression; inhibition of mTORC1 downstream targets p4E-BP1 and pS6K [5]: inhibit the mTORC1 downstream targets p4E-BP1 and pS6K; TGF-β1 driven COL1A1 expression / ECM depositions (COL1A1 [4]): this phenotype is lost in heart organoids; levels of IL-11 and phospho-p38 (IL-11 and phospho-p38): rescued levels of IL-11 and phospho-p38
